Experimental data reported in US20260159533A1, “INHIBITORS OF COMPLEMENT FACTORS AND USES THEREOF” (Annexon, Inc., priority 2022, published 2026).
Where a name gives a salt, the structure may show the parent alone.

Biological target: T1, human C1s protein (Homo sapiens, UniProt P09871)
T1 construct: purchased R&D Systems or Complement Technologies 2060-SE or A104
T1 sequence (P09871 16-688): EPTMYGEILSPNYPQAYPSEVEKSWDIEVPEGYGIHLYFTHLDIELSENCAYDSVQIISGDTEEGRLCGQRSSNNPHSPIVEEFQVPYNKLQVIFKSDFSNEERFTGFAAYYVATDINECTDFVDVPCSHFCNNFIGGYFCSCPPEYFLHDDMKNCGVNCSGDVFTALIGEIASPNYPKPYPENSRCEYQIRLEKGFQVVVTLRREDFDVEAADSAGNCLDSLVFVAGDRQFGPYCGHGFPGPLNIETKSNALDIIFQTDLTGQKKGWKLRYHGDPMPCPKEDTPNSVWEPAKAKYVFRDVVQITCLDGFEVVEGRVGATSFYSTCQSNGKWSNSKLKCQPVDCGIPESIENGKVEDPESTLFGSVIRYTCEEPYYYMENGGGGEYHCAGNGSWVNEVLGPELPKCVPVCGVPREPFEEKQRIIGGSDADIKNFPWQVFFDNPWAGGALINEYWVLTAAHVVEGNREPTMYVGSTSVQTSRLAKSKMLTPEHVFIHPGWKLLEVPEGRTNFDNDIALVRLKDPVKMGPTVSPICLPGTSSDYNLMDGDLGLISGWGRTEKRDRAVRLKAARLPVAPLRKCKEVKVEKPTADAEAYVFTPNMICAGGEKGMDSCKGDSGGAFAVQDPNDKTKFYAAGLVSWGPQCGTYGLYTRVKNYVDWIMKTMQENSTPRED
Assay: recombinant C1s enzymatic assay (YLGR-Rh110-dPro substrate hydrolysis, fluorescence)
Format: biochemical
Conditions: recombinant human C1s 2.5 nM, substrate YLGR-Rh110-dPro 20 μM, 15 min pre-incubation, 60 min RT; read-out: rec. hC11s pIC50 (converted)
Experimental: Compound testing in the purified or recombinant C1s enzymatic assay C1s is a serine protease; its enzymatic activity is measured in vitro by the hydrolysis of the synthetic substrate YLGR-Rh110-dPro (Kerr F K, O'Brien G, Quinsey N S, Whisstock J C, Boyd S, de la Banda M G, Kaiserman D, Matthews A Y, Bird P I, Pike R N. Elucidation of the substrate specificity of the Cis protease of the classical complement pathway. J. Biol. Chem. (2005) 280, 39510-39514). The enzyme cleaves the substrate with the release of Rh110 which is highly fluorescent. Cis inhibitors prevent the hydrolysis of the substrate thus resulting in a decrease of the signal.
The recombinant C1s enzymatic assay is performed using the human C1s protein (R&D Systems, 2060-SE or Complement Technologies, A104). The assay buffer composition is: 50 mM HEPES pH 7.5 (Sigma, H3375), 150 mM NaCl (Sigma, S7653), 0.2% PEG 8000 (VWR, AA43443-22), 0.01% Pluronic F127 (Sigma, P2243). On the day of the experiment 0.1 mg/mL BSA (Sigma, B4287) is added fresh to the buffer. The test item stock solutions are serially diluted 1:3 or 1:4 or 1:5 with DMSO, 11-point curves, in a 384-well compound plate. Nafamostat concentration curve is always included in the assay plate as a reference control.
The assay plate is prepared by dispensing 0.25 μL from compound plate into a 384-well black assay plate (assay plate, Greiner Fluotrac 200, 781076, VWR 736-0140). The high controls are prepared dispensing in 0.25 μL DMSO in column 23, rows AH or AP and low controls with 0.25 μL of 0.1 μM Nafamostat. Cis solution is prepared as 2× of the 2.5 nM final assay concentration. The YLGR-Rh110-dPro substrate is prepared as 2× of the final assay concentration of 20 μM. 5 μL/well of 2× enzyme solution is dispensed and pre-incubated for 15 min with the compounds. The enzymatic reaction is the started with 5 μL/well of the 2× substrate solution. The plate is incubated for 60 min RT in the dark and fluorescence is measured (ex 485/em 535 nm) using an Envision (PerkinElmer) or an equivalent instrument.

Row | Compound | IC50
1 | CC1(C)COc2cc(-n3cccn3)c(-c3ccc4c(N)cnnc4c3)cc2B(O)O1 [Example 77, 7-(1-hydroxy-3,3-dimethyl-7-pyrazol-1-yl-4H-2,5,1-benzodioxaborepin-8-yl)cinnolin-4-amine] | 1.58 nM
2 | COc1cc(-n2cc(C(F)(F)F)cn2)c(-c2ccc3c(N)cnnc3c2)cc1B(O)O [Example 81, 5-(4-aminocinnolin-7-yl)-2-methoxy-4-[4-(trifluoromethyl)pyrazol-1-yl]phenyl]boronic acid formic acid salt] | 1.17 nM
3 | COc1cc(-c2ncc(C(F)(F)F)s2)c(-c2ccc3c(N)cnnc3c2)cc1B(O)O [Example 83, [5-(4-aminocinnolin-7-yl)-2-methoxy-4-[5-(trifluoromethyl)thiazol-2-yl]phenyl]boronic acid] | 1.23 nM
4 | COc1cc(-n2cc(OC(F)F)cn2)c(-c2ccc3c(N)cnnc3c2)cc1B(O)O [Example 84, [5-(4-aminocinnolin-7-yl)-4-[4-(difluoromethoxy)pyrazol-1-yl]-2-methoxy-phenyl]boronic acid formic acid salt] | 0.741 nM
5 | COc1cc(-n2cc(OC(F)(F)F)cn2)c(-c2ccc3c(N)cnnc3c2)cc1B(O)O [Example 85, [5-(4-aminocinnolin-7-yl)-2-methoxy-4-[4-(trifluoromethoxy)pyrazol-1-yl]phenyl]boronic acid formic acid salt] | 1.2 nM
6 | COc1cc(-c2ncc(C(F)F)s2)c(-c2ccc3c(N)cnnc3c2)cc1B(O)O [Example 86, [5-(4-aminocinnolin-7-yl)-4-[5-(difluoromethyl)thiazol-2-yl]-2-methoxy-phenyl]boronic acid] | 0.741 nM
7 | Nc1cnnc2cc(-c3cc(B(O)O)c(OC4CC4)cc3-n3cccn3)ccc12 [Example 89, [5-(4-aminocinnolin-7-yl)-2-(cyclopropoxy)-4-pyrazol-1-yl-phenyl]boronic acid formic acid salt] | 0.759 nM
8 | COc1cc(-c2ncns2)c(-c2ccc3c(N)cnnc3c2)cc1B(O)O [Example 91, [5-(4-aminocinnolin-7-yl)-2-methoxy-4-(1,2,4-thiadiazol-5-yl)phenyl]boronic acid formic acid salt] | 0.468 nM

Continued, values first:

Row | IC50 | Compound
9 | 1.45 nM | Nc1cnnc2cc(-c3cc4c(cc3-c3nccs3)OCCOB4O)ccc12 [Example 76, 7-(1-hydroxy-7-thiazol-2-yl-3,4-dihydro-2,5,1-benzodioxaborepin-8-yl)cinnolin-4-amine]
10 | 1.23 nM | CCOc1cc(-n2cccn2)c(-c2ccc3c(N)cnnc3c2)cc1B(O)O [Example 82, [5-(4-aminocinnolin-7-yl)-2-ethoxy-4-pyrazol-1-yl-phenyl]boronic acid]
11 | 0.724 nM | COc1cc(-c2ncc(C)o2)c(-c2ccc3c(N)cnnc3c2)cc1B(O)O [Example 88, [5-(4-aminocinnolin-7-yl)-2-methoxy-4-(5-methyloxazol-2-yl)phenyl]boronic acid formic acid salt]
12 | 1.02 nM | COc1cc(-c2ncc(C(F)F)o2)c(-c2ccc3c(N)cnnc3c2)cc1B(O)O [Example 90, [5-(4-aminocinnolin-7-yl)-4-[5-(difluoromethyl)oxazol-2-yl]-2-methoxy-phenyl]boronic acid formic acid salt]
